In ChEMBL document CHEMBL4304773, “Nitroimidazole-containing compounds and their antibacterial and antitubercular activities” (2019):
Values after ≈ are worked out from the molar mass of the structure shown. Blank lines part the entries; values can stand above or below the molecule they belong to.

Tests used:
[1] = system: Proteus vulgaris; experiment: Antibacterial activity against Proteus vulgaris; format: functional
[2] = system: Klebsiella aerogenes; experiment: Antibacterial activity against Klebsiella aerogenes; format: functional
[3] = system: Pseudomonas aeruginosa; experiment: Antibacterial activity against Pseudomonas aeruginosa; format: functional
[4] = system: Staphylococcus epidermidis; experiment: Antibacterial activity against Staphylococcus epidermidis; format: functional
[5] = system: Candida albicans; experiment: Antifungal activity against Candida albicans; format: functional
[6] = system: Staphylococcus aureus; experiment: Antibacterial activity against Staphylococcus aureus; format: functional
[7] = system: Escherichia coli; experiment: Antibacterial activity against Escherichia coli; format: functional
[8] = system: Enterococcus faecalis; experiment: Antibacterial activity against Enterococcus faecalis; format: functional
[9] = system: Salmonella typhimurium; experiment: Antibacterial activity against Salmonella typhimurium; format: functional, Salmonella enterica subsp. enterica serovar Typhimurium; conditions: Salmonella enterica
[10] = system: Bacillus subtilis; experiment: Antibacterial activity against Bacillus subtilis PTCC 1023 after 18 hrs by two fold serial dilution; format: functional; conditions: PTCC 1023, 18 h
[11] = system: Escherichia coli; experiment: Antibacterial activity against Escherichia coli ATCC 8739 after 18 hrs by two fold serial dilution; format: functional; conditions: ATCC 8739, 18 h
[12] = system: Staphylococcus aureus; experiment: Antibacterial activity against Staphylococcus aureus ATCC 6538 after 18 hrs by two fold serial dilution; format: functional; conditions: ATCC 6538, 18 h
[13] = system: Staphylococcus epidermidis; experiment: Antibacterial activity against Staphylococcus epidermidis ATCC 12228 after 18 hrs by two fold serial dilution; format: functional; conditions: ATCC 12228, 18 h
[14] = system: Klebsiella pneumoniae; experiment: Antibacterial activity against Klebsiella pneumoniae ATCC 10031 after 18 hrs by two fold serial dilution; format: functional; conditions: ATCC 10031, 18 h
[15] = system: Helicobacter pylori; experiment: Antibacterial activity against Helicobacter pylori clinical isolate assessed as zone of inhibition at 8 ug/disc; format: functional; conditions: read-out: IZ
[16] = system: Helicobacter pylori; experiment: Antibacterial activity against drug-sensitive Helicobacter pylori assessed as zone of inhibition at 8 ug/disc; format: functional; conditions: read-out: IZ
[17] = system: Klebsiella aerogenes; experiment: Antibacterial activity against Enterobacter aerogenes PTCC 1221 after 18 hrs by two fold serial dilution; format: functional; conditions: PTCC 1221, 18 h
[18] = system: Klebsiella pneumoniae; experiment: Antibacterial activity against Klebsiella pneumoniae after 24 hrs; format: functional
[19] = system: Staphylococcus aureus; experiment: Antibacterial activity against Staphylococcus aureus ATCC 25923 after 24 hrs; format: functional; conditions: ATCC 25923, 24 h
[20] = system: Escherichia coli; experiment: Antibacterial activity against Escherichia coli ATCC 25922 after 24 hrs; format: functional; conditions: ATCC 25922, 24 h
[21] = system: Escherichia coli; experiment: Potency index, ratio of norfloxacin MIC to test compound MIC for drug-resistant Escherichia coli; format: functional
[22] = system: Pseudomonas aeruginosa; experiment: Antibacterial activity against Pseudomonas aeruginosa after 24 hrs; format: functional
[23] = system: Escherichia coli; experiment: Antibacterial activity against drug-resistant Escherichia coli after 24 hrs; format: functional
[24] = system: Pseudomonas aeruginosa; experiment: Antibacterial activity against Pseudomonas aeruginosa ATCC 27853 after 24 hrs; format: functional; conditions: ATCC 27853, 24 h
[25] = system: Staphylococcus aureus; experiment: Antibacterial activity against methicillin-resistant Staphylococcus aureus after 24 hrs; format: functional
[26] = system: Staphylococcus aureus; experiment: Antibacterial activity against Staphylococcus aureus ATCC 29213 after 24 hrs; format: functional; conditions: ATCC 29213, 24 h
[27] = system: Enterococcus faecalis; experiment: Antibacterial activity against Enterococcus faecalis after 24 hrs; format: functional
[28] = system: Staphylococcus epidermidis; experiment: Antibacterial activity against methicillin-sensitive Staphylococcus epidermidis by two fold dilution method; format: functional
[29] = system: Staphylococcus aureus; experiment: Antibacterial activity against methicillin-sensitive Staphylococcus aureus by two fold dilution method; format: functional
[30] = system: Helicobacter pylori; experiment: Antibacterial activity against metronidazole-resistant Helicobacter pylori; format: functional
[31] = system: Helicobacter pylori; experiment: Antibacterial activity against Helicobacter pylori NCTC 11637; format: functional
[32] = system: Helicobacter pylori; experiment: Antibacterial activity against metronidazole-resistant Helicobacter pylori clinical isolates; format: functional
[33] = system: Helicobacter pylori; experiment: Potency index, ratio of metronidazole MIC90 to test compound MIC90 for metronidazole-resistant Helicobacter pylori; format: functional
[34] = system: Helicobacter pylori; experiment: Antibacterial activity against Helicobacter pylori; format: functional
[35] = system: Proteus; experiment: Antibacterial activity against Proteus; format: functional
[36] = system: Bacillus subtilis; experiment: Antibacterial activity against Bacillus subtilis; format: functional

MIC [1]: 31.2 to 500 µg/mL (≈ 83.9 to 1340 µM) | MIC [2]: 31.2 to 500 µg/mL (≈ 83.9 to 1340 µM) | MIC [3]: 31.2 to 500 µg/mL (≈ 83.9 to 1340 µM) | MIC [4]: 31.2 to 500 µg/mL (≈ 83.9 to 1340 µM) | MIC [5]: 31.2 to 500 µg/mL (≈ 83.9 to 1340 µM) | MIC [6]: 31.2 to 500 µg/mL (≈ 83.9 to 1340 µM) | MIC [7]: 31.2 to 500 µg/mL (≈ 83.9 to 1340 µM) | MIC [8]: 31.2 to 500 µg/mL (≈ 83.9 to 1340 µM) | MIC [9]: 31.2 to 500 µg/mL (≈ 83.9 to 1340 µM)
Structure (SMILES): Cc1ccc(/C=C2\SC(=O)N(CCn3c([N+](=O)[O-])cnc3C)C2=O)cc1

MIC [10]: 2 to 64 µg/mL (≈ 5 to 160 µM) | MIC [11]: 2 to 64 µg/mL (≈ 5 to 160 µM) | MIC [12]: 2 to 64 µg/mL (≈ 5 to 160 µM) | MIC [13]: 2 to 64 µg/mL (≈ 5 to 160 µM) | MIC [14]: 2 to 64 µg/mL (≈ 5 to 160 µM)
Structure (SMILES): Cn1cnc([N+](=O)[O-])c1S(=O)(=O)c1nnc(-c2ncc([N+](=O)[O-])n2C)s1

Structure (SMILES): Cn1c([N+](=O)[O-])cnc1-c1nnc(Cl)s1
zone of inhibition at 8 µg/disc [15]: 20.9 to 50 mm | zone of inhibition at 8 µg/disc [16]: 20.9 to 50 mm

MIC [1]: 31.2 to 500 µg/mL (≈ 79.6 to 1270 µM) | MIC [2]: 31.2 to 500 µg/mL (≈ 79.6 to 1270 µM) | MIC [3]: 31.2 to 500 µg/mL (≈ 79.6 to 1270 µM) | MIC [4]: 31.2 to 500 µg/mL (≈ 79.6 to 1270 µM) | MIC [5]: 31.2 to 500 µg/mL (≈ 79.6 to 1270 µM) | MIC [6]: 31.2 to 500 µg/mL (≈ 79.6 to 1270 µM) | MIC [7]: 31.2 to 500 µg/mL (≈ 79.6 to 1270 µM) | MIC [8]: 31.2 to 500 µg/mL (≈ 79.6 to 1270 µM) | MIC [9]: 31.2 to 500 µg/mL (≈ 79.6 to 1270 µM)
Structure (SMILES): Cc1ncc([N+](=O)[O-])n1CCN1C(=O)S/C(=C\c2ccc(Cl)cc2)C1=O

MIC [10]: > 64 µg/mL | MIC [11]: > 64 µg/mL | MIC [17]: > 64 µg/mL | MIC [12]: 4 to 32 µg/mL (≈ 10.9 to 86.9 µM) | MIC [14]: > 64 µg/mL
Structure (SMILES): Cn1cnc([N+](=O)[O-])c1Sc1nnc(-c2ncc([N+](=O)[O-])n2C)s1

MIC [10]: 2 to 64 µg/mL (≈ 5.18 to 166 µM) | MIC [11]: 2 to 64 µg/mL (≈ 5.18 to 166 µM) | MIC [12]: 2 to 64 µg/mL (≈ 5.18 to 166 µM) | MIC [13]: 2 to 64 µg/mL (≈ 5.18 to 166 µM) | MIC [14]: 2 to 64 µg/mL (≈ 5.18 to 166 µM)
Structure (SMILES): Cn1cnc([N+](=O)[O-])c1S(=O)(=O)c1nnc(-c2ccc([N+](=O)[O-])o2)s1

Structure (SMILES): COc1cc(/C=C(\C#N)n2cc([N+](=O)[O-])nc2C)c2c(c1OCc1ccccc1F)CN1CCc3cc4c(cc3C1C2)OCO4 (centres undefined)
MIC [18]: 3 to 1020 µM (≈ 1.83 to 622 µg/mL) | MIC [19]: 3 to 1020 µM (≈ 1.83 to 622 µg/mL) | MIC [20]: 3 to 1020 µM (≈ 1.83 to 622 µg/mL) | Ratio [21]: 33 | MIC [22]: 3 to 1020 µM (≈ 1.83 to 622 µg/mL) | MIC [23]: 3 µM (≈ 1.83 µg/mL) | MIC [24]: 3 to 1020 µM (≈ 1.83 to 622 µg/mL) | MIC [25]: 3 to 1020 µM (≈ 1.83 to 622 µg/mL) | MIC [26]: 3 to 1020 µM (≈ 1.83 to 622 µg/mL) | MIC [27]: 3 to 1020 µM (≈ 1.83 to 622 µg/mL)

MIC [10]: > 64 µg/mL | MIC [11]: > 64 µg/mL | MIC [17]: > 64 µg/mL | MIC [12]: 4 to 32 µg/mL (≈ 11.3 to 90.3 µM) | MIC [14]: > 64 µg/mL
Structure (SMILES): Cn1cnc([N+](=O)[O-])c1Sc1nnc(-c2ccc([N+](=O)[O-])o2)s1

Structure (SMILES): COc1c(N2C[C@@H]3CCCN(C[C@@H](O)Cn4c([N+](=O)[O-])cnc4C)[C@@H]3C2)c(F)cc2c(=O)c(C(=O)O)cn(C3CC3)c12
MIC [28]: 0.03 to 2 µg/mL (≈ 0.0513 to 3.42 µM) | MIC [29]: 0.03 to 2 µg/mL (≈ 0.0513 to 3.42 µM)

Structure (SMILES): Cc1ncc([N+](=O)[O-])n1CCNCc1no[n+]([O-])c1C#N
MIC [30]: 0.25 to 1 µg/mL (≈ 0.853 to 3.41 µM) | MIC90 [30]: 1 µg/mL (≈ 3.41 µM) | MIC90 [31]: 0.5 to 32 µg/mL (≈ 1.71 to 109 µM) | MIC90 [32]: 0.5 to 32 µg/mL (≈ 1.71 to 109 µM) | Ratio [33]: >32 | MIC [34]: 5 µg/mL (≈ 17.1 µM) | MIC90 [34]: 0.5 µg/mL (≈ 1.71 µM)

MIC [3]: 64 to 128 µg/mL (≈ 128 to 257 µM) | MIC [6]: 64 to 128 µg/mL (≈ 128 to 257 µM) | MIC [35]: 64 to 128 µg/mL (≈ 128 to 257 µM) | MIC [7]: 64 to 128 µg/mL (≈ 128 to 257 µM) | MIC [9]: 64 to 128 µg/mL (≈ 128 to 257 µM) | MIC [36]: 64 to 128 µg/mL (≈ 128 to 257 µM)
Structure (SMILES): Cc1ncc([N+](=O)[O-])n1CCCNS(=O)(=O)c1ccc(NCc2ccc(Cl)cc2Cl)cc1

MIC [3]: 16 to 64 µg/mL (≈ 29.6 to 118 µM) | MIC [6]: 16 to 64 µg/mL (≈ 29.6 to 118 µM) | MIC [35]: 16 to 64 µg/mL (≈ 29.6 to 118 µM) | MIC [7]: 16 to 64 µg/mL (≈ 29.6 to 118 µM) | MIC [9]: 16 to 64 µg/mL (≈ 29.6 to 118 µM) | MIC [36]: 16 to 64 µg/mL (≈ 29.6 to 118 µM)
Structure (SMILES): CC(=O)N(Cc1ccc(Cl)cc1Cl)c1ccc(S(=O)(=O)NCCCn2c([N+](=O)[O-])cnc2C)cc1

Structure (SMILES): Cc1ncc([N+](=O)[O-])n1CCOc1nonc1S(=O)(=O)c1ccccc1
MIC90 [31]: 0.5 to 32 µg/mL (≈ 1.32 to 84.4 µM) | MIC90 [32]: 0.5 to 32 µg/mL (≈ 1.32 to 84.4 µM) | MIC90 [34]: 1 to 4 µg/mL (≈ 2.64 to 10.5 µM)
